According to patent US20170281611A1, “QUINOLINES AND THEIR USE FOR TREATING ENDOPLASMIC RETICULUM STRESS-CAUSED DISEASES” (EIGER BIOPHARMACEUTICALS, INC., priority 2014, published 2017):

Tests used:
APP-PS1 mice = assay: Alzheimer's disease model, Aβ deposition (Thioflavin S staining); format: in vivo, mouse; conditions: 10 mg/kg ip for 4 weeks, vs saline
Description: PS1/APP mice (PS1M146V and APPSWE) (Howlett et al., Brain Res. 2004, 1017, 130-136) were used. Age-matched NTg controls were on the same background strain (C57bl6/J9).
Mice were transcardially perfused with ice-cold PBS (3 mL) followed by 4% paraformaldehyde (5 mL). Brains were extracted and fixed overnight in 30% sucrose-cryoprotectant solution. Coronal hippocampal sections 40 μm thick were cut on a cryostat and collected in TBS (0.1 M Tris, 0.9% saline, pH 7.4).
Free-floating hippocampal sections were washed with TBS (4×3 min). The sections were soaked in 0.5% thioflavin S (in 50/50 ethyl alcohol/distilled water, Sigma-Aldrich) for 10 min, followed by 2×3 min washes with 50% ethyl alcohol. Sections were washed again with TBS (2×3 min), mounted with minimal drying, and coverslipped with anti-fade mounting medium PVA-DABCO for microscopy.
Confocal images of immunolabeled tissue were obtained using 4× and 10× objective lenses on the Olympus Fluoview confocal microscope. Density of amyloid plaques was quantified by averaging the percent area staining positive (thresholded above background staining, as determined by software parameters and experimenter confirmation) within the hippocampus and cortex from 3-5 sections from each experimental animal using MetaMorph Software (Molecular Devices). […]

[1] = system: G6PAse, PEPCK, SCD1, DGAT2, FASn, SREBP1c, PPARα, PGC1α; assay: Liver expression of gluconeogenesis and lipogenesis genes (real-time PCR); format: in vivo, mouse; conditions: liver of ob/ob mice
Description: The expression of key genes involved in gluconeogenesis and lipogenesis was measured. RNA was isolated from liver samples of the ob/ob mice and mRNA expression of the indicated genes was quantified by Real-time PCR using iTaq Fast SYBR Green Supermix with ROX (Bio-Rad) in a 7500 Real-Time PCR systems (Applied Biosystems) using mouse specific primers. Gene expression is normalized to 18s. RNA was isolated using Trizol (Invitrogen). cDNA was generated using High Capacity cDNA Reverse Transcription kit (Applied Biosystems). Real-time PCR was performed with iTaq Fast SYBR Green Supermix with ROX (Bio-Rad) in 7500 Real-Time PCR systems (Applied Biosystems) using mouse specific primers. Gene expression was normalized to 18s. Isolated liver tissue was homogenized in RIPA buffer containing protease inhibitors and phosphatase inhibitors (Roche). Protein samples were matched for their protein concentrations and 30 micrograms of each sample were applied to SDS-PASE and transferred onto nitrocellulose membrane. Membranes were then incubated with the corresponding phosphor or total primary antibodies specific for the desired proteins followed by incubation with appropriate secondary antibodies conjugated to horseradish peroxidase (Pierce) and signal intensities were visualized by Chemiluminescence (Pierce). Films from at least four independent experiments were scanned and densities of the immunoreactive bands were evaluated using NIH Image software. GAPDH (Santa Cruz Biotechnology) was used as a loading control.

[2] = target: human nerepinephrine (NET) transporter (Homo sapiens, UniProt P23975); assay: Selectivity panel of 164 targets: NET; conditions: 10 μM in duplicate; one of only 4 hits among 164 targets
Chain of human nerepinephrine (NET) transporter (P23975 whole entry): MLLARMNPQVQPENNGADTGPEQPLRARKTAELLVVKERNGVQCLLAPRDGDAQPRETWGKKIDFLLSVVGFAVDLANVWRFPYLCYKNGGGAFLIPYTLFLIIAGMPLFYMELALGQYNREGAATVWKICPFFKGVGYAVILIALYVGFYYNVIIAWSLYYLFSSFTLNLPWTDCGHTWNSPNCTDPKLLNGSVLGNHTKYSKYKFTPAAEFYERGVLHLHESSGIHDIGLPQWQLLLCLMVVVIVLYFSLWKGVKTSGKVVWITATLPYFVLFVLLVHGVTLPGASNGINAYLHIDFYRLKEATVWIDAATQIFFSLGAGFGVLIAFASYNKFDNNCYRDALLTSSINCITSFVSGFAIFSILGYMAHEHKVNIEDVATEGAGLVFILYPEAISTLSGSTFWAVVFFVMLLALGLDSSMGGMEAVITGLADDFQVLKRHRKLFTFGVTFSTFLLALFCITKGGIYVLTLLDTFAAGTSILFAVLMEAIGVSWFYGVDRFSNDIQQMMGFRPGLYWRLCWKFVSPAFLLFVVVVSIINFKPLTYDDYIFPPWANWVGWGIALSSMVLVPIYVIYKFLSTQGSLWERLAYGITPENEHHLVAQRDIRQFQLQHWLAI
Excerpt: The methods used here for each target were adapted from the scientific literature to maximize reliability and reproducibility.

ob/ob mice [3] = assay: Insulin tolerance test (ITT); format: in vivo, mouse; conditions: day 10 post-injection, compared with vehicle
Description: (§1) Both glucose (GTT) and insulin (ITT) tolerance tests were performed following a 10-hr fast and an additional 2-hr after CDNs injection with baseline blood glucose measurement taken before the beginning of the test. For the GTT, D-glucose dissolved in 0.9% NaCl was delivered intraperitoneally at a dose of 1 g/kg. The blood glucose level was measured 0, 15, 30, 60, 90, and 120 min after glucose administration. For the ITT, insulin was administered intraperitoneally at a dose of 1 IU/kg. The blood glucose level was measured 0, 15, 30, 60, 90, and 120 min after insulin administration. Glucose levels were measured in blood samples drawn from the tail vein using OneTouch Ultra 2 Meter (LifeScan, Inc.).

[4] = system: 6-OHDA lesioned Wistar rats; assay: Rat unilateral 6-OHDA model of Parkinson's disease, stepping test; format: in vivo; conditions: D11, 10 mg/kg IP once daily for 15 days; 6-OHDA/Vehicle 1.19±0.24 steps
Description: Fifty adult male Wistar rats were used. The rats from different groups (G1 to G5) were randomized. At the beginning of the study, the rats were about 5 weeks old and naive to previous administration of any drug.
A stereotaxic injection of 6-OHDA (G2 to G5) or saline (G1: sham group) was performed to induce a unilateral dopaminergic lesion on day 0 (D0). Surgery was performed on D0 under ketamine (50 mg/kg) and xylazine (10 mg/kg). The rats of G2 to G5 received a unilateral injection of 6-OHDA (6 μL) in the left substantia nigra pars compacta. Jouve et al., J. Neurosci. 2010, 30, 9919-9928. The rats of the G1 sham group were injected with saline. During surgery, local analgesia was achieved using subcutaneous injections of lidocaine. At the end of surgery, the rats were treated with buprenorphine (0.05 mg/kg, S.C.).
The stepping test was performed after IT test, both before the 6-OHDA lesion induction on D0 and on D11. Around D−6, the stepping test was performed eight consecutive times for the right paw of each animal to obtain baseline values. On D11, the stepping test was performed one hour after the rats were dosed. Each rat was hold by an experimenter and only one of the two forelimbs was left free to move above a plane surface and the other was held with the paw touching the table. The rats were then to be moved slowly forward by the experimenter. The number of adjusting steps was countered for the right paw. Olsson et al., J. Neurosci. 1995, 15, 3863-3875.
L-DOPA and benserazide (a peripheric DOPA decarboxylase inhibitor) were prepared together as a single solution containing 0.9% NaCl and 0.1% ascorbic acid.
All the dosings were given via the IP route, once daily, Sunday excluded.

ob/ob mice [5] = assay: Effect of a SERCA agonist on the level of blood glucose; format: in vivo, mouse; conditions: 10 or 50 mg/kg i.p. once a day for 5 days
Description: Fasting glucose was measured at baseline and 10 hours after the administration of the test compound. Glucose levels were measured in blood samples drawn from the tail vein using the OneTouch Ultra 2 Meter (LifeScan, Inc.).

ob/ob mice [6] = assay: Glucose tolerance test (GTT); format: in vivo, mouse; conditions: day 7 post-injection, compared with vehicle
Description: as §1

For `Cc1ccc2cccc(NC(=O)c3ccc(OC(C)C)cc3)c2n1` [Compound A12, 4-Isopropoxy-N-(2-methylquinolin-8-yl)benzamide], the “amyloid plaques stained with Thioflavin S” value (APP-PS1 mice) was “reduced”, the “expression of PPARα and its target PGC1α” value [1] was “increased” and the “mRNA expression of G6PAse and PEPCK” value [1] was “significantly reduced”. For the same compound, the “mRNA expression of lipogenic genes (SCD1, DGAT2, FASn, SREBP1c)” value [1] was “significantly reduced”, the “response against human nerepinephrine (NET) transporter” value [2] was “significant responses” and the “insulin-stimulated glucose deposal (ITT)” value (ob/ob mice [3]) was “strongly enhanced”. The “number of adjusting steps” value [4] was 6.94±0.86 steps, the fasting blood glucose (ob/ob mice [5]) was “significantly lowered blood glucose as early as day 2” and the “maintenance of lower glucose level after last injection” value (ob/ob mice [5]) was “maintained a lower glucose level, to a level identical to lean mice, for over a week after the last injection”. The “hyperglycemic response to the i.p. glucose challenge (GTT)” value (ob/ob mice [6]) was “significantly reduced”.
